Reference: US20170252350A1, “SMALL MOLECULE IRE1-ALPHA INHIBITORS” (Cornell University, priority 2016, published 2017)
“And” between values parts separate entries of the source, which are not always exact repeats. Equal values may be shown once.

Biological target: T1, IRE1α (Homo sapiens, UniProt O75460)
T1 construct: purchased SignalChem
Assay: In vitro FRET assay of IRE1α endoribonuclease activity (XBP1 RNA hairpin probe)
Assay type: biochemical
Settings: SignalChem IRE1α protein 2 nM, fluorescence read over 30 minutes
Excerpt: To evaluate potential small molecule IRE1 inhibitors, a Förster resonance energy transfer (FRET)-based small molecule IRE1 screening system was used. In brief, a small XBP1-mimetic RNA hairpin containing sequence features required for IRE1α-mediated splicing has been synthesized with the fluorophore 6FAM attached to the 5′ end and the quenching dye Black Hole Quencher 1 (BHQ1) attached to the 3′ end. When the hairpin is intact, 6FAM fluorescence is completely absorbed by BHQ1; however, IRE1α-mediated cleavage of the RNA hairpin leads to an increase in the fluorescence signal. The inventors also incorporated a point mutant version of this same RNA hairpin that is resistant to IRE1α-mediated cleavage to control for non-specific RNAse contamination (FIG. 2).
To perform the in vitro FRET assay, 1× complete assay buffer (CAB; […], 50 mM sodium citrate pH 7.15, 1 mM magnesium acetate, 0.02% tween 20) was used to dilute SignalChem IRE1α protein to a final concentration of 2 nM. Selected compounds were serially diluted with DMSO in a non-binding black 384-well plate for a total of 15 μl in each well. 2 μl of the serially diluted compound or DMSO control were then added to new wells containing 98 μl of 1×CAB, for a total volume of 100 μl, 10 μl of which were then transferred to wells of a new plate. 5 μof the diluted IRE1α was then added to each well. 5 μl of a […] XBP1 RNA probe was then added to each well. Fluorescence was then read over 30 minutes in kinetic mode (485/515 nm).
Two RNA probes were used, XBP1 wildtype (CAUGUCCGCAGCACAUG; SEQ ID NO: 1) which is able to be spliced by active IRE1α or XBP1 mutant (CAUGUCCCCAGCACAUG; SEQ ID NO: 2) which is unable to be spliced. Each probe contained a 5′ 6-FAM modification and a 3′ IOWA Black FQ modification, […]

T1 sequence (O75460 19-977): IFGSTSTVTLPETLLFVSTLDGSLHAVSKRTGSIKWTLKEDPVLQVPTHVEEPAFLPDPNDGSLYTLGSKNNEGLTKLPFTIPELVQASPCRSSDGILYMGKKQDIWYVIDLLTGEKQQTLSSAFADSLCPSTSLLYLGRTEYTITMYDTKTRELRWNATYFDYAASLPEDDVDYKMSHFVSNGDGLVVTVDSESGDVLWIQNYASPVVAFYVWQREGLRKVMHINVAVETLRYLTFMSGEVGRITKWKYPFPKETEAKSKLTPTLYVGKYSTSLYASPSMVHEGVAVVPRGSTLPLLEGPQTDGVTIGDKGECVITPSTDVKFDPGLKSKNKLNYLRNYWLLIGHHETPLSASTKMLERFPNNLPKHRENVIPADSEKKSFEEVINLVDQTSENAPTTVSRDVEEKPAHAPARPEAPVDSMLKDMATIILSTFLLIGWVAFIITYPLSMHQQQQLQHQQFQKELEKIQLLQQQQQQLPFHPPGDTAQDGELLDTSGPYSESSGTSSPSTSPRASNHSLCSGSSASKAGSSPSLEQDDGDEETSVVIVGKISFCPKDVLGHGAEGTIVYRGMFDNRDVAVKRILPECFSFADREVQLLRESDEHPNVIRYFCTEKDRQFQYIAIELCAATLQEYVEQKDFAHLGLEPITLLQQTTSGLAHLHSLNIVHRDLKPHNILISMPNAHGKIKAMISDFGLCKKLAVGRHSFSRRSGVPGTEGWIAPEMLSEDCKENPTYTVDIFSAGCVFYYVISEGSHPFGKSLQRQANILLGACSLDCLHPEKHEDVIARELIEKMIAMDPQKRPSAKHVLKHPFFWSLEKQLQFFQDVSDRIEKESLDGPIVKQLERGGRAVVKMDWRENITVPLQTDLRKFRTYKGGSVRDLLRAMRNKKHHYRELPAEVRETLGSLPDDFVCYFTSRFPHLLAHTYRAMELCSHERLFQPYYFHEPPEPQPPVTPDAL

| EC50 | Molecule |
| --- | --- |
| ≤ 5 µM | CN1CCN(Cc2ccc(NC(=O)Nc3cc(C#Cc4cccnc4)n(C)n3)cc2C(F)(F)F)CC1 [Compound A1] |
| ≤ 5 µM | CN1CCN(Cc2ccc(NC(=O)Nc3cc(C#Cc4ccc(N)nc4)n(C)n3)cc2C(F)(F)F)CC1 [Compound A2] |
| ≤ 5 µM | CN1CCN(Cc2ccc(NC(=O)Nc3cc(C#Cc4cnc5cccnn45)n(C)n3)cc2C(F)(F)F)CC1 [Compound A3] |
| ≤ 5 µM | CN1CCN(Cc2ccc(NC(=O)Nc3cc(C#Cc4cnc5ccccn45)n(C)n3)cc2C(F)(F)F)CC1 [Compound A4] |
| ≤ 5 µM | CN1CCN(Cc2ccc(NC(=O)Nc3cc(C#Cc4cnc5cnccn45)n(C)n3)cc2C(F)(F)F)CC1 [Compound A5] |
| ≤ 5 µM | CN1CCN(Cc2ccc(NC(=O)Nc3cc(C#Cc4cncc5nccn45)n(C)n3)cc2C(F)(F)F)CC1 [Compound A6] |
| 5 to 50 µM | CN1CCN(Cc2ccc(NC(=O)Nc3cc(C#Cc4ccnc(N)c4)n(C)n3)cc2C(F)(F)F)CC1 [Compound A7] |
| ≤ 5 µM and 5 to 50 µM | COc1cc(C#Cc2cc(NC(=O)Nc3ccc(CN4CCN(C)CC4)c(C(F)(F)F)c3)nn2C)ccn1 [Compound A8] |
| ≤ 5 µM | CN1CCN(Cc2ccc(NC(=O)Nc3cc(C#Cc4cnc(N)cn4)n(C)n3)cc2C(F)(F)F)CC1 [Compound A9] |
| ≤ 5 µM | CN1CCN(Cc2ccc(NC(=O)Nc3cc(C#Cc4ccncc4)n(C)n3)cc2C(F)(F)F)CC1 [Compound A10] |
| ≤ 5 µM | CN1CCN(Cc2ccc(NC(=O)Nc3cc(C#Cc4cc(N)[nH]n4)n(C)n3)cc2C(F)(F)F)CC1 [Compound A11] |
| ≤ 5 µM | CN1CCN(Cc2ccc(NC(=O)Nc3cc(C#Cc4cn[nH]c4)n(C)n3)cc2C(F)(F)F)CC1 [Compound A12] |
| ≤ 5 µM | CN1CCN(Cc2ccc(NC(=O)Nc3cc(C#Cc4cncn4C)n(C)n3)cc2C(F)(F)F)CC1 [Compound A13] |
| ≤ 5 µM | CN1CCN(Cc2ccc(NC(=O)Nc3cc(C#Cc4n[nH]c5cccnc45)n(C)n3)cc2C(F)(F)F)CC1 [Compound A14] |
| 5 to 50 µM | CN1CCN(Cc2ccc(NC(=O)Nc3cc(C#Cc4cc[nH]c(=O)c4)n(C)n3)cc2C(F)(F)F)CC1 [Compound A15] |
| ≤ 5 µM | CN1CCN(Cc2ccc(NC(=O)Nc3cc(C#Cc4ccccn4)n(C)n3)cc2C(F)(F)F)CC1 [Compound A16] |
| ≤ 5 µM | CN1CCN(Cc2ccc(NC(=O)Nc3cc(C#Cc4ccc(C#N)nc4)n(C)n3)cc2C(F)(F)F)CC1 [Compound A17] |
| 50 to 100 µM | CN1CCN(Cc2ccc(NC(=O)Nc3cc(C#Cc4ccc(N)cc4)n(C)n3)cc2C(F)(F)F)CC1 [Compound A18] |
| ≤ 5 µM | CN1CCN(Cc2ccc(NC(=O)Nc3cc(C#Cc4cnccn4)n(C)n3)cc2C(F)(F)F)CC1 [Compound A19] |
| ≤ 5 µM | Cn1nc(NC(=O)Nc2cccc(C(F)(F)F)c2)cc1C#Cc1ccc(N)nc1 [Compound A20] |
| ≤ 5 µM | CN1CCN(Cc2ccc(NC(=O)Nc3cc(C#Cc4cncc(N)c4)n(C)n3)cc2C(F)(F)F)CC1 [Compound A21] |
| ≤ 5 µM | Cn1nc(NC(=O)Nc2ccc(CN3CCN(CCO)CC3)c(C(F)(F)F)c2)cc1C#Cc1ccc(N)nc1 [Compound A22] |
| ≤ 5 µM | CN1CCN(Cc2ccc(NC(=O)Nc3nnc(C#Cc4ccc(N)nc4)s3)cc2C(F)(F)F)CC1 [Compound A23] |
| 5 to 50 µM | Cn1nc(NC(=O)Nc2ccc(CN3CCCCC3)c(C(F)(F)F)c2)cc1C#Cc1ccc(N)nc1 [Compound A24] |
| 5 to 50 µM | Cn1nc(NC(=O)Nc2ccc(CN3CCOCC3)c(C(F)(F)F)c2)cc1C#Cc1ccc(N)nc1 [Compound A25] |

System: myeloid dendritic cells
Assay: Lipid accumulation (BODIPY 493/503) in myeloid dendritic cells exposed to ovarian cancer ascites supernatants
Assay type: cell-based, mouse
Settings: not given

| Molecule | intracellular lipid accumulation |
| --- | --- |
| vitamin E | suppressed |
